Data as given in article PMC12073635, “Synthesis of Tricyclic and Tetracyclic Lactone Derivatives of Thieno[2,3-b]pyrazine or Thieno[2,3-b]quinoline: Preliminary Antitumor and Antiparasitic Activity Evaluation” (Molecules, 2025).

Experiments:
[1] = test system: THP-1-derived macrophages; test: MTT cytotoxicity in THP-1-derived macrophages; assay type: cell-based, human
Experimental: Human leukemia cell line, THP-1 (ATCC® TIB-202™, Manassas, VA, USA) was cultured in RPMI-1640 medium supplemented with 10% heat-inactivated Fetal Bovine Serum (FBS), 2 mM L-glutamine, 100 UI/mL penicillin/streptomycin, 20 mM HEPES. The cell line was maintained in a humidified incubator at 37 °C and 5% CO2 by subculture every three days in 20 mL of media at a concentration of 1 × 10^5/mL in a T75 flask. All cell culture reagents were purchased from Lonza-Bioscience (Morrisville, NC, USA).
The cytotoxicity effect of compounds on THP-1-derived macrophages was assessed by the colorimetric MTT assay (3-(4,5-dimethylthiazol-2-yl)-2,5-diphenyl tetrazolium bromide). Briefly, THP-1 cells were suspended in RPMI complete medium at a density of 1 × 10^6 cells/mL and 100 μL/well were seeded in a 96-well plate and were differentiated into macrophages by addition of 40 ng/mL of phorbol-myristate 13-acetate (PMA, Sigma, Saint Louis, MI, USA) for 24 h followed by replacement with fresh medium for more 24 h. Subsequently, cells were incubated with 100 μL of compounds ranging from 100 to 12.5 μM after dilution in the RPMI complete medium. Each condition was carried out in quadruplicate. After 72 h of incubation at 37 °C 5% CO2, the medium was removed and 200 μL of 0.5 mg/mL MTT solution diluted in RPMI was added. Plates were incubated for an additional 4 h. Then 160 μL of media was removed and the same volume of 2-propanol was added. Absorbance was read at 570 nm using a Synergy 2 Multi-Mode Reader (Biotek, Winooski, VT, USA). Cytotoxicity was evaluated by the determination of the CC50 value (drug concentration that reduced the percentage of viable cells in 50%) and calculated by non-linear regression analysis using GraphPad Prism version 8.1.1 for Windows (GraphPad Software, San Diego, CA, USA). The results represent the average of at least three independent experiments. For each compound, the Selectivity Index (SI) was calculated as the ratio between cytotoxicity in THP-1 (CC50, 72 h) and activity against parasites (IC50, 72 h).

[2] = test system: MCF-7 (breast adenocarcinoma) cells; test: SRB cell growth inhibition assay, MCF-7; assay type: cell-based, human; settings: mean ± standard deviation
Experimental: (§1) The antitumor potential of the Sonogashira coupling products 2, tricyclic lactones 3 and 5, and tetracyclic lactones 7 was evaluated using the sulforhodamine B (SRB) assay against five human tumor cell lines: colorectal adenocarcinoma (CaCo-2), breast adenocarcinoma (MCF-7), gastric adenocarcinoma (AGS), cervical carcinoma (HeLa), and non-small cell lung cancer (NCI-H460). A primary pig liver cell culture (PLP2) was used to assess the toxicity of compounds.
(§2) The human tumor cell lines used were CaCo-2 (colorectal adenocarcinoma), MCF-7 (breast adenocarcinoma), AGS (gastric adenocarcinoma), HeLa (cervical carcinoma), NCI-H460 (lung carcinoma). Non-tumor cell lines were also tested: PLP2 (primary pig liver culture). All the cell lines were maintained in RPMI-1640 medium supplemented with 10% fetal bovine serum, glutamine (2 mM), penicillin (100 U/mL), and streptomycin ([…]), with the exception of PLP2, which was maintained in DMEM medium supplemented with fetal bovine serum (10%), glutamine and antibiotics. The culture flasks were incubated at 37 °C and with 5% CO2, under a humid atmosphere. The cells were used only when they had 70 to 80% confluence. A known mass of each compound was dissolved in DMSO/H2O (1:1, 1 mL), in order to obtain the stock solutions with a concentration of 1 mM. […] Each compound concentration (10 μL) was incubated with the cell suspension (190 μL) of the cell lines tested in 96-well microplates for 72 h. The microplates were incubated at 37 °C and with 5% CO2 in a humid atmosphere after checking the adherence of the cells. All cell lines were tested at a concentration of 10,000 cells/well. After the incubation period, the cells were treated: TCA (10% w/v; 100 μL) was previously cooled, and plates were incubated for 1 h at 4 °C, washed with water, and, after drying, a SRB solution (0.057%, m/v; 100 μL) was added and left to stand at room temperature for 30 min. To remove non-adhered SRB, plates were washed three times with a solution of acetic acid (1% v/v) and placed to dry. Finally, an adhered SRB was solubilized with Tris (10 mM, 200 μL) and the absorbance at a wavelength of 540 nm was read in the Biotek ELX800 microplate reader. The results obtained by the SRB assay were expressed regarding the concentration compounds that can inhibit cell growth by 50%—GI50. Doxorubicin was used as a positive control.

[3] = test system: PLP2 (primary pig liver cell culture); test: SRB assay, toxicity in non-tumor PLP2 cells; assay type: cell-based; settings: at the GI50 concentrations
Experimental: as §1, §2

[4] = SRB assay, toxicity in non-tumor PLP2 cells; assay type: cell-based, pig; settings: PLP2 primary pig liver cells (non-tumor); non-tumor primary pig liver cells, SRB assay, 72 h, mean ± standard deviation
Experimental: as §1, §2

Row | GI50 ([2]; 72 h) | GI50 ([2]; Homo sapiens, MCF7, 72 h) | Structure (SMILES) | cytotoxicity in THP-1-derived macrophages (in words) [1] | toxicity in PLP2 cells (in words) [3] | GI50 at 72 h [4]
1 | 4.08 ± 0.27 µM | < 5 µM | COC(=O)c1sc2nccnc2c1C#Cc1ccccn1 [Compound 2f, Methyl 7-(pyridin-2-ylethynyl)thieno[2,3-b]pyrazine-6-carboxylate] | some level of toxicity | without significant toxicity | 57.9 ± 4.31 µM
2 |  | 59.3 ± 2.45 µM | O=c1oc(-c2ccccn2)cc2c1sc1nccnc12 [Compound 3f, 8-(Pyridin-2-yl)-6H-pyrano[4′,3′:4,5]thieno[2,3-b]pyrazin-6-one] | some degree of cytotoxicity | low toxicity | > 125 µM
